Results published in ChEMBL document CHEMBL3885881, “DrugMatrix”.

Species: Rattus norvegicus
Experiment: DrugMatrix - Regimen: Daily Repeat
Type: toxicity, organism-based, Sprague-Dawley
Set-up: regimen Daily Repeat, gender Male, age 6-8 weeks
Conditions: in vivo, po, route oral GAVAGE, […]; for ABSOLUTE BASOPHIL / ABSOLUTE EOSINOPHIL / ABSOLUTE LYMPHOCYTE / ABSOLUTE MONOCYTE / ABSOLUTE SEGMENTED NEUTROPHIL / BASOPHIL / EOSINOPHIL / ERYTHROCYTE COUNT / HEMATOCRIT / HEMOGLOBIN / LEUKOCYTE COUNT / LYMPHOCYTE / MEAN CORPUSCULAR HEMOGLOBIN / MEAN CORPUSCULAR HEMOGLOBIN CONCENTRATION / MEAN CORPUSCULAR VOLUME / MONOCYTE / NEUTROPHIL / NUCLEATED RED BLOOD CELLS / PLATELET COUNT: tissue Blood; for ALANINE AMINOTRANSFERASE / ALBUMIN / ALKALINE PHOSPHATASE / ASPARTATE AMINOTRANSFERASE / BLOOD UREA NITROGEN / CARBON DIOXIDE / CHLORIDE / CHOLESTEROL / CREATINE PHOSPHOKINASE / CREATININE / GLUCOSE / LACTATE DEHYDROGENASE / LIPASE / PHOSPHORUS / POTASSIUM / SODIUM / TOTAL BILIRUBIN / TOTAL PROTEIN / URIC ACID: tissue Plasma
[1] = 18 mg/kg, 72 h, dose level High, time 3 day
[2] = 18 mg/kg, 120 h, dose level High, time 5 day
[3] = 72 h, dose 0.28 mg/Kg, dose level Low, time 3 day
[4] = 120 h, dose 0.28 mg/Kg, dose level Low, time 5 day

CC(C(=O)O)c1ccc(CC2CCCC2=O)cc1 (configuration not stated) [LOXOPROFEN]
ABSOLUTE BASOPHIL [1]: 0 CELLS/uL | ABSOLUTE EOSINOPHIL [1]: 0 CELLS/uL | ABSOLUTE LYMPHOCYTE [1]: 12885.33 CELLS/uL | ABSOLUTE MONOCYTE [1]: 42.67 CELLS/uL | ABSOLUTE SEGMENTED NEUTROPHIL [1]: 1338.67 CELLS/uL | BASOPHIL [1]: 0% | EOSINOPHIL [1]: 0% | ERYTHROCYTE COUNT [1]: 5.2 x10E6/uL | HEMATOCRIT [1]: 32.2% | HEMOGLOBIN [1]: 13.03 G/DL | LEUKOCYTE COUNT [1]: 14.27 x10E3/uL | LYMPHOCYTE [1]: 90.67% | MEAN CORPUSCULAR HEMOGLOBIN [1]: 25.1 pg | MEAN CORPUSCULAR HEMOGLOBIN CONCENTRATION [1]: 40.53 G/DL | MEAN CORPUSCULAR VOLUME [1]: 61.93 fL | MONOCYTE [1]: 0.33% | NEUTROPHIL [1]: 9% | NUCLEATED RED BLOOD CELLS [1]: 0 /100WBC | PLATELET COUNT [1]: 1130.33 x10E3/uL | ALANINE AMINOTRANSFERASE [1]: 76.67 u/L | ALBUMIN [1]: 4.03 G/DL | ALKALINE PHOSPHATASE [1]: 346.33 u/L | ASPARTATE AMINOTRANSFERASE [1]: 93 u/L | BLOOD UREA NITROGEN [1]: 15.67 mg/dL | CARBON DIOXIDE [1]: 30.33 mmol/L | CHLORIDE [1]: 102.33 MEQ/L | CHOLESTEROL [1]: 83 mg/dL | CREATINE PHOSPHOKINASE [1]: 423.33 u/L | CREATININE [1]: 0.36 mg/dL | GLUCOSE [1]: 148.67 mg/dL | LACTATE DEHYDROGENASE [1]: 236.33 u/L | LIPASE [1]: 13 u/L | PHOSPHORUS [1]: 11.07 mg/dL | POTASSIUM [1]: 6.41 MEQ/L | SODIUM [1]: 143.6 MEQ/L | TOTAL BILIRUBIN [1]: 0.27 mg/dL | TOTAL PROTEIN [1]: 5.63 G/DL | URIC ACID [1]: 1.1 mg/dL | ABSOLUTE BASOPHIL [2]: 0 CELLS/uL | ABSOLUTE EOSINOPHIL [2]: 118 CELLS/uL | ABSOLUTE LYMPHOCYTE [2]: 14441.67 CELLS/uL | ABSOLUTE MONOCYTE [2]: 168.67 CELLS/uL | ABSOLUTE SEGMENTED NEUTROPHIL [2]: 1438.33 CELLS/uL | BASOPHIL [2]: 0% | EOSINOPHIL [2]: 1% | ERYTHROCYTE COUNT [2]: 5.58 x10E6/uL | HEMATOCRIT [2]: 34.33% | HEMOGLOBIN [2]: 13.8 G/DL | LEUKOCYTE COUNT [2]: 16.17 x10E3/uL | LYMPHOCYTE [2]: 90% | MEAN CORPUSCULAR HEMOGLOBIN [2]: 24.77 pg | MEAN CORPUSCULAR HEMOGLOBIN CONCENTRATION [2]: 40.2 G/DL | MEAN CORPUSCULAR VOLUME [2]: 61.53 fL | MONOCYTE [2]: 1% | NEUTROPHIL [2]: 8% | NUCLEATED RED BLOOD CELLS [2]: 0 /100WBC | PLATELET COUNT [2]: 1237 x10E3/uL | ALANINE AMINOTRANSFERASE [2]: 60.67 u/L | ALBUMIN [2]: 4.13 G/DL | ALKALINE PHOSPHATASE [2]: 356.33 u/L | ASPARTATE AMINOTRANSFERASE [2]: 101 u/L | BLOOD UREA NITROGEN [2]: 17 mg/dL | CARBON DIOXIDE [2]: 27.67 mmol/L | CHLORIDE [2]: 103.33 MEQ/L | CHOLESTEROL [2]: 67.67 mg/dL | CREATINE PHOSPHOKINASE [2]: 434 u/L | CREATININE [2]: 0.18 mg/dL | GLUCOSE [2]: 141 mg/dL | LACTATE DEHYDROGENASE [2]: 660 u/L | LIPASE [2]: 10.67 u/L | PHOSPHORUS [2]: 11.17 mg/dL | POTASSIUM [2]: 5.74 MEQ/L | SODIUM [2]: 144.53 MEQ/L | TOTAL BILIRUBIN [2]: 0.23 mg/dL | TOTAL PROTEIN [2]: 5.77 G/DL | URIC ACID [2]: 1.33 mg/dL | ABSOLUTE BASOPHIL [3]: 0 CELLS/uL | ABSOLUTE EOSINOPHIL [3]: 0 CELLS/uL | ABSOLUTE LYMPHOCYTE [3]: 8216 CELLS/uL | ABSOLUTE MONOCYTE [3]: 105.67 CELLS/uL | ABSOLUTE SEGMENTED NEUTROPHIL [3]: 1111.67 CELLS/uL | BASOPHIL [3]: 0% | EOSINOPHIL [3]: 0% | ERYTHROCYTE COUNT [3]: 5.18 x10E6/uL | HEMATOCRIT [3]: 32.3% | HEMOGLOBIN [3]: 13.07 G/DL | LEUKOCYTE COUNT [3]: 9.43 x10E3/uL | LYMPHOCYTE [3]: 87.33% | MEAN CORPUSCULAR HEMOGLOBIN [3]: 25.23 pg | MEAN CORPUSCULAR HEMOGLOBIN CONCENTRATION [3]: 40.47 G/DL | MEAN CORPUSCULAR VOLUME [3]: 62.37 fL | MONOCYTE [3]: 1% | NEUTROPHIL [3]: 11.67% | NUCLEATED RED BLOOD CELLS [3]: 0 /100WBC | PLATELET COUNT [3]: 1232.67 x10E3/uL | ALANINE AMINOTRANSFERASE [3]: 78.33 u/L | ALBUMIN [3]: 4 G/DL | ALKALINE PHOSPHATASE [3]: 425 u/L | ASPARTATE AMINOTRANSFERASE [3]: 95.33 u/L | BLOOD UREA NITROGEN [3]: 17 mg/dL | CARBON DIOXIDE [3]: 30 mmol/L | CHLORIDE [3]: 101.33 MEQ/L | CHOLESTEROL [3]: 69 mg/dL | CREATINE PHOSPHOKINASE [3]: 495.67 u/L | CREATININE [3]: 0.2 mg/dL | GLUCOSE [3]: 186.33 mg/dL | LACTATE DEHYDROGENASE [3]: 214.33 u/L | LIPASE [3]: 8.67 u/L | PHOSPHORUS [3]: 12.6 mg/dL | POTASSIUM [3]: 6.25 MEQ/L | SODIUM [3]: 143.63 MEQ/L | TOTAL BILIRUBIN [3]: 0.17 mg/dL | TOTAL PROTEIN [3]: 5.5 G/DL | URIC ACID [3]: 1.43 mg/dL | ABSOLUTE BASOPHIL [4]: 0 CELLS/uL | ABSOLUTE EOSINOPHIL [4]: 43.33 CELLS/uL | ABSOLUTE LYMPHOCYTE [4]: 10902.67 CELLS/uL | ABSOLUTE MONOCYTE [4]: 142 CELLS/uL | ABSOLUTE SEGMENTED NEUTROPHIL [4]: 678.67 CELLS/uL | BASOPHIL [4]: 0% | EOSINOPHIL [4]: 0.33% | ERYTHROCYTE COUNT [4]: 5.61 x10E6/uL | HEMATOCRIT [4]: 35.07% | HEMOGLOBIN [4]: 14.17 G/DL | LEUKOCYTE COUNT [4]: 11.77 x10E3/uL | LYMPHOCYTE [4]: 93% | MEAN CORPUSCULAR HEMOGLOBIN [4]: 25.23 pg | MEAN CORPUSCULAR HEMOGLOBIN CONCENTRATION [4]: 40.4 G/DL | MEAN CORPUSCULAR VOLUME [4]: 62.43 fL | MONOCYTE [4]: 1.33% | NEUTROPHIL [4]: 5.33% | NUCLEATED RED BLOOD CELLS [4]: 0 /100WBC | PLATELET COUNT [4]: 984.33 x10E3/uL | ALANINE AMINOTRANSFERASE [4]: 57 u/L | ALBUMIN [4]: 4.3 G/DL | ALKALINE PHOSPHATASE [4]: 291 u/L | ASPARTATE AMINOTRANSFERASE [4]: 85.33 u/L | BLOOD UREA NITROGEN [4]: 18 mg/dL | CARBON DIOXIDE [4]: 26.67 mmol/L | CHLORIDE [4]: 103.67 MEQ/L | CHOLESTEROL [4]: 68.67 mg/dL | CREATINE PHOSPHOKINASE [4]: 238 u/L | CREATININE [4]: 0.23 mg/dL | GLUCOSE [4]: 187.33 mg/dL | LACTATE DEHYDROGENASE [4]: 153.33 u/L | LIPASE [4]: 11 u/L | PHOSPHORUS [4]: 11.87 mg/dL | POTASSIUM [4]: 5.74 MEQ/L | SODIUM [4]: 144.4 MEQ/L | TOTAL BILIRUBIN [4]: 0.2 mg/dL | TOTAL PROTEIN [4]: 5.83 G/DL | URIC ACID [4]: 1.6 mg/dL
